{"source": "patent US6344214B1", "about": "“Method for retarding and ameliorating fever blisters and canker sores” (priority 1999, dated 2002)", "key": {"shrimp": {"system": "shrimp", "settings": "50 mg/kg diet, 3 months; cited from earlier work"}, "rat kidney fibroblasts": {"system": "rat kidney fibroblasts", "settings": "UVA light for four hours; cited from earlier work"}, "herpes Simplex virus": {"system": "herpes Simplex virus", "settings": "cited from earlier work"}, "neoplastic liver lesions": {"system": "neoplastic liver lesions", "settings": "dietary astaxanthin; cited from earlier work"}, "[1]": {"system": "chicken embryo fibroblasts (CEF)", "settings": "SOD, catalase, glutathione peroxidase as indices; cited from earlier work"}, "[2]": {"system": "photoreceptor cells of the retina", "settings": "37.5 mg/kg intraperitoneal at 12 hour intervals; uninjured control 45, injured without astaxanthin 32; cited from earlier work"}, "cold sores": {"system": "cold sores", "assay": "Example 1: oral astaxanthin soft gel capsules, cold sore outbreaks in one individual", "format": "in vivo, human", "procedure": "(§1) Haematococcus algae meal containing 1.5% astaxanthin was thoroughly mixed with safflower oil such that the resulting suspension contained 2.0 mg of pure astaxanthin per gram of safflower oil suspension. 500 mg soft gel capsules were produced from the safflower oil suspension such that each soft gel capsule contained 1.0 mg of pure astaxanthin.\nOne individual was a person who has suffered from cold sore outbreaks every 4-6 weeks on average which lasted 10-14 days . This individual consumed 3.0 mg of astaxanthin (three soft gel capsules) per day for two weeks prior to an outbreak, and the symptoms lasted only 2 days instead of 2 weeks."}, "[3]": {"system": "free putrescine in the epidermis", "settings": "10 ppm astaxanthin diet, 4 months; control increased 4.1-fold; cited from earlier work"}, "[4]": {"system": "neoplasms in the oral cavity", "settings": "cited from earlier work"}, "[5]": {"system": "neoplasms in the large intestines", "settings": "rats fed astaxanthin, azoxymethane induction; cited from earlier work"}, "rhodopsin": {"system": "rhodopsin", "settings": "oral dosing, cited from earlier work"}, "rats": {"system": "rats", "settings": "400 ppm for 41 days; cited from earlier work"}, "[6]": {"settings": "2 mg astaxanthin capsule, six months; placebo 21.78; P=0.047; cited from earlier work"}, "CYP1A1": {"system": "CYP1A1", "settings": "dietary level 300 ppm; cited from earlier work"}, "[7]": {"settings": "0.1% dietary astaxanthin for 30 days, cited from earlier work"}, "[8]": {"settings": "in vivo; cited from earlier work"}, "canker sores": {"system": "canker sores", "assay": "Example 2: oral astaxanthin soft gel capsules, canker sores in one individual", "format": "in vivo, human", "procedure": "as §1\nA second individual was a person who had often suffered canker sores on the inside of their mouth. They had difficulty and pain eating sour and tart foods due to the condition. This individual consumed 2.0 mg of astaxanthin (two soft gel capsules) per day for three weeks and the cankers sores were alleviated. They were then able to eat sour and tart foods without suffering pain from the canker sores. When the individual stopped taking the supplement the canker sores returned within 10 days."}, "[9]": {"system": "preneoplastic lesions and neoplasms in the bladder", "settings": "50-ppm astaxanthin in drinking water; cited from earlier work"}, "Atlantic salmon fry": {"system": "Atlantic salmon fry", "settings": "cited from earlier work"}}, "note": "Read-outs that look alike come from different tables or passages of the source.", "data": [{"smiles": "CC1=C(/C=C/C(C)=C/C=C/C(C)=C/C=C/C=C(C)/C=C/C=C(C)/C=C/C2=C(C)CCCC2(C)C)C(C)(C)CCC1", "note": "[beta-carotene]", "values": [{"measurement": "average survival rate", "setting": "shrimp", "result": 50, "unit": "%"}, {"measurement": "level required to restore superoxide dismutase activity", "setting": "rat kidney fibroblasts", "result": 500, "unit": "nM"}, {"measurement": "level that prevented the UVA-induced increase in TBARS", "setting": "rat kidney fibroblasts", "result": 100, "unit": "nM"}, {"measurement": "level that returned catalase activity to control levels", "setting": "rat kidney fibroblasts", "result": 1000, "unit": "nM"}]}, {"smiles": "CC1=C[C@H](O)CC(C)(C)[C@H]1/C=C/C(C)=C/C=C/C(C)=C/C=C/C=C(C)/C=C/C=C(C)/C=C/C1=C(C)C[C@@H](O)CC1(C)C", "note": "[lutein]", "values": [{"measurement": "level required to restore superoxide dismutase activity", "setting": "rat kidney fibroblasts", "result": 1000, "unit": "nM"}, {"measurement": "level that prevented the UVA-induced increase in TBARS", "setting": "rat kidney fibroblasts", "result": 1000, "unit": "nM"}, {"measurement": "level that returned catalase activity to control levels", "setting": "rat kidney fibroblasts", "result": 100, "unit": "nM"}]}, {"smiles": "Nc1nc2c(ncn2COCCO)c(=O)[nH]1", "note": "[acyclovir, Acyclovir]", "values": [{"measurement": "patients with no fever blister outbreaks", "setting": "herpes Simplex virus; four acyclovir pills daily for 4 months", "result": 50, "unit": "%"}, {"measurement": "effectiveness against fever blisters", "setting": "herpes Simplex virus; pills taken at onset of symptoms, or cream applied to blisters or tingling lip areas, separate studies", "result": "only minimally effective"}]}, {"smiles": "CC1=C(/C=C/C(C)=C/C=C/C(C)=C/C=C/C=C(C)/C=C/C=C(C)/C=C/C2=C(C)C(=O)[C@@H](O)CC2(C)C)C(C)(C)C[C@H](O)C1=O", "note": "[astaxanthin]", "values": [{"measurement": "number and size of neoplastic liver lesions", "setting": "neoplastic liver lesions", "result": "significant influence on the reduction in number and size"}, {"measurement": "protection against paraquat-induced oxidative stress", "setting": "[1]", "result": "observed at all levels of astaxanthin tested"}, {"measurement": "average survival rate", "setting": "shrimp", "result": 87, "unit": "%"}, {"measurement": "outer nuclear layer (ONL) thickness after photic injury", "setting": "[2]", "result": 42, "unit": "microns"}, {"measurement": "duration of cold sore symptoms", "setting": "cold sores; 3.0 mg astaxanthin per day (three soft gel capsules) for two weeks before the outbreak, earlier 10-14 days", "result": 2, "unit": "days"}, {"measurement": "recurrence of cold sores", "setting": "cold sores; 3.0 mg per day, earlier outbreaks every 4-6 weeks", "result": "has not had a another recurrence of cold sores in three months"}, {"measurement": "increase of putrescine after UV irradiation", "setting": "[3]", "result": 1.5, "unit": "fold"}, {"measurement": "incidences of preneoplastic and neoplasms in the oral cavity", "setting": "[4]; 100-ppm dietary astaxanthin after the carcinogenic chemical induction", "result": "significantly smaller"}, {"measurement": "oral neoplasms", "setting": "[4]; astaxanthin and the chemical inducer fed at the same time", "result": "no oral neoplasms developed"}, {"measurement": "incidence and multiplicity of neoplasms in the large intestines", "setting": "[5]", "result": "significantly smaller"}, {"measurement": "retinal rhodopsin level", "setting": "rhodopsin; 6-hour post injury, control 0.75", "result": "1.15 to 1.2", "unit": "nmol"}, {"measurement": "retinal rhodopsin level", "setting": "rhodopsin; 6 days after injury, constant through day 13, control 0.5", "result": "about 1.25 nmol"}, {"measurement": "effects on body/organ weight, enzyme activities, pregnancy, litter size", "setting": "rats", "result": "no harmful effects"}, {"measurement": "strength/endurance average score (knee bends with a barbell weight)", "setting": "[6]", "result": 61.74}, {"measurement": "induction of CYP1A1", "setting": "CYP1A1", "result": "strong inducer"}, {"measurement": "level required to restore superoxide dismutase activity", "setting": "rat kidney fibroblasts", "result": 5, "unit": "nM"}, {"measurement": "level that prevented the UVA-induced increase in TBARS", "setting": "rat kidney fibroblasts", "result": 1, "unit": "nM"}, {"measurement": "level that returned catalase activity to control levels", "setting": "rat kidney fibroblasts", "result": 5, "unit": "nM"}, {"measurement": "LDL cholesterol", "setting": "[7]; control diet 12.5", "result": 9.6, "unit": "mg/dL"}, {"measurement": "HDL cholesterol", "setting": "[7]; control diet 42.4", "result": 57, "unit": "mg/dL"}, {"measurement": "crossing of the blood-brain barrier", "setting": "[8]", "result": "able to readily cross the blood-brain barrier"}, {"measurement": "effect on canker sores", "setting": "canker sores; 2.0 mg astaxanthin per day (two soft gel capsules) for three weeks", "result": "alleviated"}, {"measurement": "time to return of canker sores after stopping the supplement", "setting": "canker sores; after stopping 2.0 mg per day", "result": "≤ 10", "unit": "days"}, {"measurement": "effect on symptoms on taking the supplement again", "setting": "canker sores; same dosage, 2.0 mg per day", "result": "ameliorated after approximately three weeks"}, {"measurement": "incidence of preneoplastic lesions and neoplasms in the bladder", "setting": "[9]", "result": "significantly reduced incidence"}, {"measurement": "survival rate", "setting": "Atlantic salmon fry; astaxanthin concentrations below 1 ppm in diet", "result": "less than 50%"}, {"measurement": "survival rate", "setting": "Atlantic salmon fry; groups receiving higher concentrations", "result": "greater than 90%"}]}]}
